Source: patent publication US11812753B2, “Solvent compositions promoting plant growth” (priority 2020, dated 2023)
Like-named read-outs stand apart in the source and are kept apart here.

Key:
[1] = Two-week stability test of solvent / Warden CX mixtures (viscosity, density); type: physicochemical; conditions: mixture with Warden CX; for Post: Density / Post: Viscosity: after two weeks at 54° C., 4° C. and/or −10° C.; for Pre: Viscosity: before two-week stability test
Method: The same seven solvent compositions were then evaluated for their compatibility with Warden® CX, which is a combination of fungicide and insecticide (containing a proprietary solvent) formulated for soybean seed treatment and sold by Winfield® United. Specifically, 0.5 fl. oz./cwt. of each experimental solvent was added to 50 mL of Warden® CX. […] The mixtures were then evaluated for stability by placing the samples at 54° C., 4° C. and/or at −10° C. for a two-week period. Viscosity levels were measured before and after the two-week stability test, along with the post-test density levels, and the results shown below in Table 6.

[2] = from SDS of each solvent, cited from earlier work
[3] = Active ingredient loading of PGR components in solvent compositions by HPLC; type: physicochemical
From the text: To understand if changing the active component loading rate would impact the biological performance of the PGR compositions, two solvent compositions, methoxy propanol and tetrahydrofuryl alcohol, were mixed with various PGR compositions (4×) selected for their favorable solubility properties, curing properties, and compatibility with Rhizobia. Propylene glycol was again included as a control sample, and each composition was mixed with BHT (4×). Citric acid was excluded from all samples. The weight percentage of each PGR component mixed with each solvent composition is shown below in Table 7.
The HPLC was performed using an Agilent 1260 device with a diode-array detector for active component quantification.
[…]. As shown, the deviation was less than 1% for each composition.

[4] = Density of solvent compositions (DMA 4500); type: physicochemical; conditions: solvent mixed with 0.1 wt % BHT and 4x PGR composition
Method: (§1) Propylene glycol was used as a control. The evaluated solvents, along with the mass of each PGR component and BHT, are shown below in Table 4. The density and viscosity of the solvent compositions were then determined. The density measurements were obtained using a DMA™ 4500, which was calibrated using 20° C. DI water. Viscosity was determined using a modular compact rheometer. Viscosity levels were measured at 25° C.

[5] = Viscosity of solvent compositions (modular compact rheometer); type: physicochemical; conditions: solvent mixed with 0.1 wt % BHT and 4x PGR composition; 25° C.
Method: as §1

Molecule	Post: Density [1] [g/mL]	Post: Viscosity [1] [cPa]	Pre: Viscosity [1] [cPa]	Boiling Point [2] [C. °]	Density [2] [g/mL]	Flash Point [2] [C. °]	Solubility [2]	other results
CCCCOCCO [Ethylene glycol butyl ether, 2-butoxyl ethanol]	1.0263	69.69	138.49	171	0.902	67		
CCCCC(CC)COC(=O)C(C)O (centres unmarked) [Lactic acid, 2-ethylhexyl ester]				122	1.2			
CC(=O)OCC(COC(C)=O)OC(C)=O [Glyceryl triacetate]				259	1.158	148	Soluble	Solubility ([2]; listed as glyceryl triacetate): soluble
COCC(C)O (centres unmarked) [1-methoxy-2-propanol]	1.0440	106.18	1764.63	118	0.916	34		change of viscosity over the two-week period [1]: decreasing the most; Aux. by HPLC ([3]; 1st composition of Table 7, auxin added 0.6596%): 0.674%; Cyt. by HPLC ([3]; 1st composition of Table 7, cytokinin added 0.0614%): 0.072%; Gib. by HPLC ([3]; 1st composition of Table 7, gibberellin added 0.0460%): 0.046%; Aux. by HPLC ([3]; 2nd composition of Table 7, auxin added 0.6136%): 0.630%; Cyt. by HPLC ([3]; 2nd composition of Table 7, cytokinin added 0.1074%): 0.126%; Gib. by HPLC ([3]; 2nd composition of Table 7, gibberellin added 0.0460%): 0.045%; Aux. by HPLC ([3]; 3rd composition of Table 7, auxin added 0.5215%): 0.531%; Cyt. by HPLC ([3]; 3rd composition of Table 7, cytokinin added 0.1534%): 0.178%; Gib. by HPLC ([3]; 3rd composition of Table 7, gibberellin added 0.0920%): 0.088%; Aux. by HPLC ([3]; 4th composition of Table 7, auxin added 0.4985%): 0.502%; Cyt. by HPLC ([3]; 4th composition of Table 7, cytokinin added 0.1994%): 0.235%; Gib. by HPLC ([3]; 4th composition of Table 7, gibberellin added 0.0690%): 0.069%; Aux. by HPLC ([3]; 5th composition of Table 7, auxin added 0.5675%): 0.579%; Cyt. by HPLC ([3]; 5th composition of Table 7, cytokinin added 0.1074%): 0.130%; Gib. by HPLC ([3]; 5th composition of Table 7, gibberellin added 0.0920%): 0.089%
CCOC(C)=O [Ethyl acetate]				77		−4.4	Miscible	
OCC1CCCO1 (centres unmarked) [Tetrahydrofurfyl Alcohol]	1.0825	150.59	962.75	178	1.054	75	Miscible	Density [4]: 1.0548 g/mL; Aux. by HPLC ([3]; 6th composition of Table 7, auxin added 0.4958%): 0.497%; Cyt. by HPLC ([3]; 6th composition of Table 7, cytokinin added 0.094%): 0.108%; Gib. by HPLC ([3]; 6th composition of Table 7, gibberellin added 0.0804%): 0.081%; Viscosity [5]: 5.4046 cPa
CC(=O)OCCCCCCC=O [Oxo-heptyl acetate]				192	0.886	43	Slightly	
CCCCCOC(C)=O [Amyl Acetate]				149	0.87	40	Insoluble	Viscosity [2]: 1.58 cP
CCCCOC(=O)C(C)O (centres unmarked) [Butyl lactate]	1.1067	387.57	901.94	186	0.984	69	Slightly	Viscosity [5]: 5.0736 cPa
CC(O)CO (centres unmarked) [Propylene Glycol, reference compound]				205	1.12	138	Soluble	Solubility ([2]; listed as propylene glycol): soluble
CCCCOCCOCCO [Diethylene glycol butyl ether]	1.0486	45.06	112.48	228	0.953	99	Miscible	Viscosity [5]: 7.7338 cPa
Ethyl hexanol				185	0.833	75		
